Data on two compounds can be found in patent US9579316B2, “Salts of 2-amino-1-hydroxyethyl-8-hydroxyquinolin-2(1H)-one derivatives having both muscarinic receptor antagonist and β2 adrenergic receptor agonist activities” (priority 2013, dated 2017).

Each structure is given as a SMILES string.

Series [1] is described as follows: Thermogravimetric (TG) analysis. Format: physicochemical. The conditions noted are these: for TG analysis: temperature until which no significant changes are observed (then loss of mass / decomposition): heated at 10° C./min between 30 and 300° C., nitrogen flow. The procedure:
Thermogravimetric analyses were recorded in a Mettler Toledo SDTA851e. Samples of 1-3 mg were weighted (using a microscale MX5, Mettler) 40 μL aluminium crucibles with a pinhole lid, and were heated at 10° C./min between 30 and 300° C., under nitrogen flow (50 mL/min). Data collection and evaluation was done with software STARe.

A short description of series [2]: Differential scanning calorimetry (DSC) analysis. Format: physicochemical. As for the experimental part: DSC analyses were recorded either in a Mettler Toledo DSC822e or using a DSC-821 Mettler-Toledo, serial number 5117423874. In the case of a Mettler Toledo DSC822e equipment, samples of 1-3 mg were weighted (using a microscale MX5, Mettler) into 40 μL aluminium crucibles with a pinhole lid, and were heated, under nitrogen flow (50 mL/min), from 30 to 300° C. at a heating rate of 10° C./min. Data collection and evaluation was done with software STARe. In case of a DSC-821 Mettler-Toledo, serial number 5117423874 equipment, samples were weighed into an aluminium pan, an aluminium pinhole lid placed on top of the sample and compressed with a brass rod. Samples were equilibrated at 25° C. and heated at 10° C./min to 300° C. The instrument was calibrated using indium and zinc standards.

On to `CN(CCCn1nnc2cc(CNC[C@H](O)c3ccc(O)c4[nH]c(=O)ccc34)ccc21)[C@H]1CC[C@H](OC(=O)C(O)(c2cccs2)c2cccs2)CC1.O=C1NS(=O)(=O)c2ccccc21` (relative stereo) [Example 1, trans-4-[{3-[5-({[(2R)-2-hydroxy-2-(8-hydroxy-2-oxo-1,2-dihydroquinolin-5-yl)ethyl]amino}methyl)-1H-1,2,3-benzotriazole-1-yl]propyl}(methyl)-amino]cyclohexyl hydroxy(di-2-thienyl)acetate saccharinate], for which, in series [1], the “TG analysis: temperature until which no significant changes are observed (then loss of mass / decomposition)” value is 130-140 °C. Also, the “hygroscopicity (no solvent/water release in TG)” value in series [1] (no change prior to 140° C., in particular at 80-100° C.) is on record as “lack of hygroscopicity”. Further, the “stability (no conversion into other polymorphs, no decomposition below the DSC endotherm)” value in series [2] is “high stability”. The “DSC endothermic curve onset (possible decomposition of the salt)” value in series [2] (heating rate 10° C./min) was “about 170 °C”.
On to `CN(CCCn1c(=O)sc2cc(CNC[C@H](O)c3ccc(O)c4[nH]c(=O)ccc34)ccc21)[C@H]1CC[C@H](OC(=O)C(O)(c2cccs2)c2cccs2)CC1.O=C(O)/C=C/C(=O)O` [Example 2, trans-4-[{3-[6-({[(2R)-2-hydroxy-2-(8-hydroxy-2-oxo-1,2-dihydroquinolin-5-yl)ethyl]amino}methyl)-2-oxo-1,3-benzothiazole-3(2H)-yl]propyl}(methyl)amino]cyclohexyl hydroxy(di-2-thienyl)acetate fumarate], for which the “TG analysis: temperature until which no significant changes are observed (then loss of mass / decomposition)” value in series [1] was “about 140 °C”. Moreover, the “stability (no conversion into other polymorphs, no decomposition below the DSC endotherm)” value in series [2] is given as “high stability”. In addition, in series [2] (heating rate 10° C./min), the “DSC endothermic curve maximum (possible fusion/decomposition of the salt)” value is 134 °C.
